Data on 1 compound can be found in patent US5276170A, “Azido-substituted aromatic amino acids” (The United States of America as represented by the …, priority 1992, dated 1994).

Assay [1] relates to mushroom tyrosinase (sigma). The experiment in a line: Mushroom tyrosinase oxidation (UV/visible spectra; dopaquinone production at 480 nm). Format: biochemical. The source says:
Thus, compound 1 is apparently able to bind strongly to mushroom tyrosinase.

For assay [2], the system named is PC12 cells. The experiment in a line: Incorporation of tyrosine, leucine and thymidine into PC12 cells. The class given is cell-based. The conditions noted are these: for inhibition at 1000 µM: Rattus norvegicus. As for the experimental part: The incorporation (2 μCi/well) of [^14 CU]tyrosine, [^3 H]thymidine were measured in the presence and absence of 2-azidotyrosine (1.0 mM) over a period of 72 hours. PC12 cells were grown as monolayers in 150 cm^2 tissue culture flasks at 37° C. in 6% CO2 in Dulbecco's modified Eagle's medium supplemented with 7% fetal bovine serum, 7% horse serum, and 100 μg streptomycin and 100 units of penicillin per ml. The cells were split after 3 days and aliquots (2 ml) transferred to 6 well culture plates. 2-Azidotyrosine (final concentration, 1 mM), [^14 CU] tyrosine (2 μCi/well), [^3 H]leucine (2 μCi/well), and [^3 H]thymidine (2 μCi/well) were added in 0.5 ml solutions in cell media. The final volume of each well was adjusted to 3.0 ml. The cultures were incubated in the dark at 37° C. in 6% CO2 for 12, 24, 48 and 72 hrs. Cells were removed and transferred to conical tubes (10 ml), sedimented by centrifugation, and washed 3X with phosphate buffered saline, pH 7.2. The cell sediment was dissolved in 0.5 ml of a solution of 0.5N NAOH containing 1% SDS over a period of 30 min., neutralized with 0.5 ml 0.5N HCl, and the isotope content measured by scintillation spectrometry. The results are expressed at the mean±SEM for 3 wells for each set of conditions.

Another assay has as its target tyrosine phenol-lyase (Citrobacter freundii, UniProt P31013). Nature of the assay: Tyrosine phenol-lyase catalyzed hydrolytic cleavage to ammonium pyruvate and 3-azidophenol. Format: biochemical. The conditions noted are these: as substrate; % of Vmax of L-tyrosine.
Assay [3] relates to PC12 cells. The experiment in a line: Effect on PC12 cell growth ([3H]thymidine and [3H]leucine incorporation over 5 days). The conditions noted are these: presence and absence of NGF. Format: cell-based. Here is the method: Cell growth was estimated both visually and by the incorporation of [^3 H]thymidine and [^3 H]leucine over a period of 5 days in the presence and absence of nerve growth factor, 50 nanogm/well (NGF-7S was obtained from Boehringer Mannheim Biochemicals, Indianapolis, Ind.; labeled amino acids and thymidine were obtained from New England Nuclear, Boston, Mass.). On day one, compound 1 was added in concentrations ranging from 0.005 to 1.5 mM. Less than 10% inhibition in isotope-incorporation was observed between control and cultures over the five day period.

Read-outs that look alike come from different tables or passages of the source.

tyrosine phenol-lyase, sequence (P31013 whole entry, species assumed): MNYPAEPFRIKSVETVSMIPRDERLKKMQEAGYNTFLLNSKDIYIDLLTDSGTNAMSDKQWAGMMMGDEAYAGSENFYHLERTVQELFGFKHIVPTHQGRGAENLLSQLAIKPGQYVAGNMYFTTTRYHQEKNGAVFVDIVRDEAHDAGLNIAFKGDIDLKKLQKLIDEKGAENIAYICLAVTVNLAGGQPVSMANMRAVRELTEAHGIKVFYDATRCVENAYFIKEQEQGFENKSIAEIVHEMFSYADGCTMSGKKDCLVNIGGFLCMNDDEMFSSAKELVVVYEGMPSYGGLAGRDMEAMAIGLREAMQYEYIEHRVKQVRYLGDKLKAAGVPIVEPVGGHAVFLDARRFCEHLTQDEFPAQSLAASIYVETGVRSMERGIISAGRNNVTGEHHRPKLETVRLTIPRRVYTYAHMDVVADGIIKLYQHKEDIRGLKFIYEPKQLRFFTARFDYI

Consider `[N-]=[N+]=Nc1cc(O)ccc1C[C@H](N)C(=O)O` [compound 1, 2-azido-L-tyrosine], for which, in assay [1] (0.1 mM, equimolar L-tyrosine, dopaquinone at 480 nm), the “lag period before oxidation of L-tyrosine” value was “much longer lag periods”. Moreover, the “hydroxylation by mushroom tyrosinase” value in assay [1] (extensive incubation, UV and visible absorption spectra) is on record as “not hydroxylated”. In addition, the “binding to mushroom tyrosinase” value in assay [1] (inferred from lag period) is listed as “bind strongly”. The “incorporation of [3H]leucine” value in the assay on PC12 cells [2] (1.0 mM, up to 72 hrs) was “not significantly different from control”. Also, the inhibition at 1000 µM in the assay with PC12 cells [2] (PC-12, 1.0 mM, 24 hours, read-out: inhibition of [3H]thymidine incorporation) was 34%; in the assay with PC12 cells [2] (PC-12, 1.0 mM, 72 hours, read-out: inhibition of [3H]thymidine incorporation) it was 24%; in the assay on PC12 cells [2] (PC-12, 24 h, 1.0 mM, 24 hrs, compared to untreated controls, read-out: inhibition of [14CU]tyrosine incorporation) it was roughly 58%; in the assay with PC12 cells [2] (PC-12, 72 h, 1.0 mM, 72 hrs, compared to untreated controls, read-out: inhibition of [14CU]tyrosine incorporation), roughly 38%. Moreover, the “Vmax (relative to that of L-tyrosine)” value at tyrosine phenol-lyase worked out at 18%. Besides, the inhibition in isotope-incorporation entry in the assay with PC12 cells [3] (0.005 to 1.5 mM, [3H]thymidine and [3H]leucine, five day period) was “Less than 10%”. Besides, the “growth of PC12 cells” value with PC12 cells [3] (maximum concentration 1.5 mM, 5 days) is reported as “did not significantly inhibit”.
